SMILES strings stand for the structures.

Results on 1 compound are retold here after BindingDB's records for doi:10.1016/j.bmcl.2008.09.059 (Seoul National University, 2008).

The assay deals with Isocitrate lyase (Candida albicans, UniProt Q9P8Q7). The assay is described as follows: Inhibition of candida albicans isocitrate lyase.
Sequence of Isocitrate lyase (Q9P8Q7 whole entry): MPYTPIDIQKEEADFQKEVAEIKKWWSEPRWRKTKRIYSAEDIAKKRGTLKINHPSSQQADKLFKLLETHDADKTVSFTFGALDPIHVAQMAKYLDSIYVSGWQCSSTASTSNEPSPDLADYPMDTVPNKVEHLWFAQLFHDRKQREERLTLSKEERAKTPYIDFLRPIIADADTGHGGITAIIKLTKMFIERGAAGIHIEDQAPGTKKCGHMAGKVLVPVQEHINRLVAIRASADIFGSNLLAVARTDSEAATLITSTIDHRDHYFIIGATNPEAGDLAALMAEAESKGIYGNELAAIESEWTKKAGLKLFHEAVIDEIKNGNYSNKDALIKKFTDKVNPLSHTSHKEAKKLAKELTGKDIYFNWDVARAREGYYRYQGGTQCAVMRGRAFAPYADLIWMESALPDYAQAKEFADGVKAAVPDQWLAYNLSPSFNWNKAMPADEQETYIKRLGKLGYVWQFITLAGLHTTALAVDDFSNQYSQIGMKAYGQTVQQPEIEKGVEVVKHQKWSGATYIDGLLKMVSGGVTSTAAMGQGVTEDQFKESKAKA

A word on the IC50: it is the midpoint of a concentration-inhibition curve. Lower therefore signals inhibition by little substance. The compound `CC1=CC[C@H]2C(C)(C)CCC[C@]2(C)[C@H]1C[C@@H](OS(=O)(=O)O)[C@H](C)CCC/C(C)=C/Cc1cc(O)ccc1O` registered an IC50 of 158 µM.
